The record followed here is patent publication US20110190227A1, “Antagonists of Prostaglandin D2 Receptors” (Amira Pharmaceuticals, Inc., priority 2008, published 2011).

Bounds are passed on as bounds.

In one assay the target is T1, human DP1 receptor (Homo sapiens, UniProt Q13258).
T1 construct: tissue Biological Specialty Corporation; host or cells: human platelets, membrane preparation
T1 sequence (Q13258 1-359): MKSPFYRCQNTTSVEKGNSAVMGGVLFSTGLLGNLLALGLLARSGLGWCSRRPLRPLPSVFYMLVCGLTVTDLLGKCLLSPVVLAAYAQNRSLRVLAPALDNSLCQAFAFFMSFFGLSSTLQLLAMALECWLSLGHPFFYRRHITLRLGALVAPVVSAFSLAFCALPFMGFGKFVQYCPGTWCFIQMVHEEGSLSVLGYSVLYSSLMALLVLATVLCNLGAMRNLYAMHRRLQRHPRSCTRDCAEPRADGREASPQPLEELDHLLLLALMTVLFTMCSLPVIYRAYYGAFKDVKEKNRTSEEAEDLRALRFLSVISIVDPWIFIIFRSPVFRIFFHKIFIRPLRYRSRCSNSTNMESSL
In words: DP1 radioligand membrane binding assay ([3H]BWA868C). The settings on record: human platelet membranes, 2 nM [3H]BWA868C; read-out: hDP1. As for the experimental part:
The ability of a compound to bind to the human DP1 receptor was evaluated via a radioligand membrane binding assay using the DP1 selective synthetic ligand [^3H]BWA868C. Packed human platelets (Biological Specialty Corporation), were resuspended in 6 volumes of Hepes/HBSS buffer (10 mM Hepes, 1 mM DTT in Hanks Balanced Salt Solution (HBSS), lysed and centrifuged at 75,000×g to pellet the membranes. Membranes were resuspended in Hepes/HBSS buffer to approximately 12 mg protein/ml. Membranes (20 μg protein/well) are incubated in 96-well plates with 2 nM [^3H]BWA868C and test compound in Assay Buffer (50 mM Hepes, 10 mM MnCl2, 1 mM EDTA, plus or minus 0.2% human serum albumin, pH 7.4) for 60 minutes at room temperature. The reactions are terminated by rapid filtration through Whatman GF/C glass fibre filter plates. The filter plates were pre-soaked in 0.33% polyethylenimine for 30 minutes at room temperature then washed in Wash Buffer (50 mM Hepes, 0.5 M NaCl pH 7.4) prior to harvesting. After harvesting, the filter plates are washed 3 times with 1 ml cold Wash Buffer then dried. Scintillant is then added to the plates and the radioactivity retained on the filters is determined on a Packard TopCount (Perkin Elmer). Specific binding is determined as total radioactive binding minus non-specific binding in the presence of 10 μM BW A868C. IC50s were determined using GraphPad prism analysis of drug titration curves.

A further assay deals with T2, human DP2 receptor (Homo sapiens, UniProt Q9Y5Y4).
T2 construct: expressed in transfected cells
T2 sequence (Q9Y5Y4 1-395): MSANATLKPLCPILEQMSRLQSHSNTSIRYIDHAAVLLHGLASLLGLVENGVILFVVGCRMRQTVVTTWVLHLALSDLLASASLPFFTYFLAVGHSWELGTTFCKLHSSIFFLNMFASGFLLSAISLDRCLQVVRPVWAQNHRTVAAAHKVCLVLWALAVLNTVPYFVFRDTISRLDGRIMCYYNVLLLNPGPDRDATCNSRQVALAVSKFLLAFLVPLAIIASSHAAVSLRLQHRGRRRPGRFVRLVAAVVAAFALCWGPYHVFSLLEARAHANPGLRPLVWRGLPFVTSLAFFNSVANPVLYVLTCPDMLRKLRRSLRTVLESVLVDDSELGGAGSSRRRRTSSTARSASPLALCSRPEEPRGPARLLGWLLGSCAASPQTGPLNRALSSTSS
In words: DP2/CRTH2 radioligand binding assay ([3H]PGD2). Particulars: membranes of HEK293 cells expressing recombinant human DP2, 1 nM [3H]PGD2; read-out: hDP2. As for the experimental part:
The ability of a compound to bind to the human DP2 receptor is assessed via a radioligand binding assay using [^3H]PGD2. HEK293 cells stably expressing recombinant human DP2 are resuspended in 10 mM Hepes, 7.4 containing 1 mM DTT, lysed and centrifuged at 75,000×g to pellet the membranes. The membranes are resuspended in 10 mM Hepes, 7.4 containing 1 mM DTF and 10% glycerol to approximately 5 mg protein/ml. Membranes (2-10 […]) are incubated in 96-well plates with 1 nM [^3H]PGD2 and test compound in Assay Buffer (50 mM Hepes, 10 mM MnCl2, 1 mM EDTA, plus or minus 0.2% human serum albumin, pH 7.4) for 60 minutes at room temperature. The reactions are terminated by rapid filtration through Whatman GF/C glass fibre filter plates. The filter plates were pre-soaked in 0.33% polythylenimine for 30 minutes at room temperature then washed in Wash Buffer (50 mM Hepes, 0.5 M NaCl pH 7.4) prior to harvesting. After harvesting, the filter plates are washed 3 times with 1 ml cold Wash Buffer then dried. Scintillant is then added to the plates and the radioactivity retained on the filters is determined on a Packard TopCount (Perkin Elmer). Specific binding is determined as total radioactive binding minus non-specific binding in the presence of 10 μM PGD2. IC50s were determined using GraphPad prism analysis of drug titration curves.

Turning to `CN(C)CCSCc1cc(Br)ccc1Oc1cccc(CC(=O)O)c1` [Compound 1-18, {3-[4-Bromo-2-(2-dimethylamino-ethylsulfanylmethyl)-phenoxy]-phenyl}-acetic acid], the IC50 at human DP1 receptor and on human DP2 receptor was more than 1 µM in each case.

For the molecule `O=C(O)CSCc1cc(Br)ccc1Oc1cccc(CC(=O)O)c1` [Compound 1-19, [3-(4-Bromo-2-carboxymethylsulfanylmethyl-phenoxy)-phenyl]-acetic acid], the IC50 at human DP1 receptor and on human DP2 receptor was more than 1 µM each time.

Regarding `O=C(O)Cc1cccc(Oc2ccc(Br)cc2CS(=O)(=O)c2ccccc2)c1` [Compound 1-20, [3-(2-Benzenesulfonylmethyl-4-bromo-phenoxy)-phenyl]-acetic acid], the figures for the IC50 at human DP1 receptor and on human DP2 receptor were more than 1 µM and less than 0.3 µM, respectively.

For `O=C(O)Cc1cccc(Oc2ccc(Br)cc2CS(=O)(=O)Cc2ccccc2)c1` [Compound 1-21, [3-(4-Bromo-2-phenylmethanesulfonylmethyl-phenoxy)-phenyl]-acetic acid], the IC50 was 0.3 to 1 µM at human DP1 receptor and less than 0.3 µM on human DP2 receptor.

With `O=C(O)Cc1cccc(Oc2ccc(Br)cc2CS(=O)(=O)CCc2ccccc2)c1` [Compound 1-22, {3-[4-Bromo-2-(2-phenyl-ethanesulfonylmethyl)-phenoxy]-phenyl}-acetic acid], the IC50 at human DP1 receptor is more than 1 µM; on human DP2 receptor it was less than 0.3 µM.

Consider `O=C(O)Cc1cccc(Oc2ccc(Br)cc2CS(=O)(=O)c2ccccn2)c1` [Compound 1-23, {3-[4-Bromo-2-(pyridine-2-sulfonylmethyl)-phenoxy]-phenyl}-acetic acid], for which the values for the IC50 on human DP1 receptor and at human DP2 receptor were more than 1 µM and 0.3 to 1 µM, respectively.

For `O=C(O)Cc1cccc(Oc2ccc(Br)cc2CS(=O)(=O)c2ccc3ccccc3n2)c1` [Compound 1-24, {3-[4-Bromo-2-(quinoline-2-sulfonylmethyl)-phenoxy]-phenyl}-acetic acid], the IC50 on human DP1 receptor and on human DP2 receptor was more than 1 µM in each case.

On to `O=C(O)Cc1cccc(Oc2ccc(Br)cc2CS(=O)(=O)c2nccs2)c1` [Compound 1-25, {3-[4-Bromo-2-(thiazole-2-sulfonylmethyl)-phenoxy]-phenyl}-acetic acid], for which the IC50 on human DP1 receptor was more than 1 µM; on human DP2 receptor, 0.3 to 1 µM.

On to `Cc1nnc(S(=O)(=O)Cc2cc(Br)ccc2Oc2cccc(CC(=O)O)c2)s1` [Compound 1-26, {3-[4-Bromo-2-(5-methyl-[1,3,4]thiadiazole-2-sulfonylmethyl)-phenoxy]-phenyl}-acetic acid], for which the IC50 was more than 1 µM at human DP1 receptor and less than 0.3 µM at human DP2 receptor.

For `CN(C)CCS(=O)(=O)Cc1cc(Br)ccc1Oc1cccc(CC(=O)O)c1` [Compound 1-27, {3-[4-Bromo-2-(2-dimethylamino-ethanesulfonylmethyl)-phenoxy]-phenyl}-acetic acid], the IC50 on human DP1 receptor was more than 1 µM; on human DP2 receptor it was less than 0.3 µM.

`O=C(O)Cc1cccc(Oc2ccc(Br)cc2C[S+]([O-])c2ccccc2)c1` (stereo not drawn) [Compound 1-28, [3-(2-Benzenesulfinylmethyl-4-bromo-phenoxy)-phenyl]-acetic acid]: the figures for the IC50 at human DP1 receptor and at human DP2 receptor were more than 1 µM and less than 0.3 µM, respectively.

For `O=C(O)Cc1cccc(Oc2ccc(Br)cc2C[S+]([O-])Cc2ccccc2)c1` (stereo not drawn) [Compound 1-29, [3-(4-Bromo-2-phenylmethanesulfinylmethyl-phenoxy)-phenyl]-acetic acid], the IC50 at human DP1 receptor is more than 1 µM; at human DP2 receptor it was less than 0.3 µM.

For `O=C(O)Cc1cccc(Oc2ccc(Br)cc2C[S+]([O-])CCc2ccccc2)c1` (stereo not drawn) [Compound 1-30, {3-[4-Bromo-2-(2-phenyl-ethanesulfinylmethyl)-phenoxy]-phenyl}-acetic acid], the IC50 on human DP1 receptor is more than 1 µM; on human DP2 receptor, less than 0.3 µM.

On to `O=C(O)Cc1cccc(Oc2ccc(Br)cc2C[S+]([O-])c2ccccn2)c1` (stereo not drawn) [Compound 1-31, {3-[4-Bromo-2-(pyridine-2-sulfinylmethyl)-phenoxy]-phenyl}-acetic acid], for which the IC50 on human DP1 receptor and at human DP2 receptor was more than 1 µM throughout.

Consider `O=C(O)Cc1cccc(Oc2ccc(Br)cc2C[S+]([O-])c2ccc3ccccc3n2)c1` (stereo not drawn) [Compound 1-32, {3-[4-Bromo-2-(quinoline-2-sulfinylmethyl)-phenoxy]-phenyl}-acetic acid], for which the IC50 at human DP1 receptor was more than 1 µM; on human DP2 receptor, less than 0.3 µM.

For the molecule `O=C(O)Cc1cccc(Oc2ccc(Br)cc2C[S+]([O-])c2nccs2)c1` (stereo not drawn) [Compound 1-33, {3-[4-Bromo-2-(thiazole-2-sulfinylmethyl)-phenoxy]-phenyl}-acetic acid], the IC50 on human DP1 receptor was more than 1 µM; on human DP2 receptor it was less than 0.3 µM.

As to `Cc1nnc([S+]([O-])Cc2cc(Br)ccc2Oc2cccc(CC(=O)O)c2)s1` (stereo not drawn) [Compound 1-34, {3-[4-Bromo-2-(5-methyl-[1,3,4]thiadiazole-2-sulfinylmethyl)-phenoxy]-phenyl}-acetic acid], the IC50 on human DP1 receptor is more than 1 µM; at human DP2 receptor, less than 0.3 µM.

Consider `CN(C)CC[S+]([O-])Cc1cc(Br)ccc1Oc1cccc(CC(=O)O)c1` (stereo not drawn) [Compound 1-35, {3-[4-Bromo-2-(2-dimethylamino-ethanesulfinylmethyl)-phenoxy]-phenyl}-acetic acid], for which the IC50 at human DP1 receptor and on human DP2 receptor was more than 1 µM in each case.

As for `O=C(O)Cc1cccc(Oc2ccc(Br)cc2C[S+]([O-])CC(=O)O)c1` (stereo not drawn) [Compound 1-36, [3-(4-Bromo-2-carboxymethanesulfinylmethyl-phenoxy)-phenyl]-acetic acid], the IC50 at human DP1 receptor and at human DP2 receptor was more than 1 µM in each case.

As to `O=C(O)Cc1cccc(Oc2ccc(Br)cc2COc2ccccc2)c1` [Compound 1-37, [3-(4-Bromo-2-phenoxymethyl-phenoxy)-phenyl]-acetic acid], the values for the IC50 at human DP1 receptor and on human DP2 receptor were 0.3 to 1 µM and more than 1 µM, respectively.

With `COc1ccc(CC(=O)O)cc1Oc1ccc(Cl)cc1CSCc1ccccc1` [Compound 1-54, [3-(2-Benzylsulfanylmethyl-4-chloro-phenoxy)-4-methoxy-phenyl]-acetic acid], the IC50 on human DP1 receptor is 0.3 to 1 µM; on human DP2 receptor, less than 0.3 µM.

Regarding `COc1ccc(CC(=O)O)cc1Oc1ccc(Cl)cc1C[S+]([O-])Cc1ccccc1` (stereo not drawn) [Compound 1-55, [3-(4-Chloro-2-phenylmethanesulfinylmethyl-phenoxy)-4-methoxyphenyl]-acetic acid], the IC50 at human DP1 receptor was more than 1 µM; on human DP2 receptor, 0.3 to 1 µM.

`COc1ccc(CC(=O)O)cc1Oc1ccc(Cl)cc1CS(=O)(=O)Cc1ccccc1` [Compound 1-56, [3-(4-Chloro-2-phenylmethanesulfonylmethyl-phenoxy)-4-methoxy-phenyl]-acetic acid]: the results for the IC50 on human DP1 receptor and at human DP2 receptor were more than 1 µM and less than 0.3 µM, respectively.

Take `Cn1cc(-c2ccc(Oc3cccc(CC(=O)O)c3)c(CSc3ccccc3)c2)cn1` [Compound 1-57, {3-[4-(1-Methyl-1H-pyrazol-4-yl)-2-phenylsulfanylmethyl-phenoxy]-phenyl}-acetic acid]: the values for the IC50 at human DP1 receptor and at human DP2 receptor were more than 1 µM and 0.3 to 1 µM, respectively.
